The text below walks through data of patent US9180164B2, “Compounds and methods of modulating angiogenesis” (THE CLEVELAND CLINIC FOUNDATION, priority 2011, dated 2015).

Assay [1] concerns αvβ3 integrin. Kind of assay: Fibrinogen binding assay (FACS). The class given is cell-based, mouse. The settings on record: DiYF EC; 20 ng/ml VEGF or 1 mM MnCl2. The protocol:
(§1) To assess fibrinogen binding, semiconfluent wild type and DiYF mouse lung endothelial cells were serum starved for 4 h and further induced with 20 ng/ml VEGF-165, 20 ng/ml b-FGF or 1 mm MnC12. Fluorescein isothiocyanate (FITC)-labeled fibrinogen was added at a final concentration of 200 nM for 45 min. […] Fluorescence-activated cell sorting (FACS) was performed using a FACS Calibur (Becton Dickinson, San Jose, Calif.) and data were analyzed using CellQuest software program.

Assay [2] concerns the target T1, αvβ3 integrin (Mus musculus, UniProt O54890+P43406).
T1 construct: endogenous in cells; host or cells: primary mouse lung endothelial cells
T1 sequence (O54890 26-787): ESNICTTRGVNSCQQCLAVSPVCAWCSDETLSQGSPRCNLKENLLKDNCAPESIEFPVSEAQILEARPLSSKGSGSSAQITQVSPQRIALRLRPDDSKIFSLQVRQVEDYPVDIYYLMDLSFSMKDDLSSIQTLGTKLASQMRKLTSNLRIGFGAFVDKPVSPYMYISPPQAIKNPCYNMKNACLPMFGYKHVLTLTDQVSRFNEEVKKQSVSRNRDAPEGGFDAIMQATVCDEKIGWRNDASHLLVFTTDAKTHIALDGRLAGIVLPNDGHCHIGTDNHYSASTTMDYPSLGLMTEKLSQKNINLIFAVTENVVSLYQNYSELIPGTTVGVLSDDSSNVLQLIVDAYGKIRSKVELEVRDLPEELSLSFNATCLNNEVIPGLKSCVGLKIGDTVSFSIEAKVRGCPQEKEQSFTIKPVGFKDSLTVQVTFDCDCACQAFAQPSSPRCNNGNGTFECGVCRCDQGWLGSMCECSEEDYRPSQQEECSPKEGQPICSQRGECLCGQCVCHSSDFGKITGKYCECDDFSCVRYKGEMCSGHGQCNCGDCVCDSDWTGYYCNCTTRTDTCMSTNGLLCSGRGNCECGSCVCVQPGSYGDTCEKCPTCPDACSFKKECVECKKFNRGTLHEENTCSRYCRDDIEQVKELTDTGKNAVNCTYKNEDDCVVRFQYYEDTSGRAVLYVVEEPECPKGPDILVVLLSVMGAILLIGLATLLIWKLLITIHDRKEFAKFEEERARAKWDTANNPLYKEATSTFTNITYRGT
T1 sequence (P43406 31-885 limits assumed): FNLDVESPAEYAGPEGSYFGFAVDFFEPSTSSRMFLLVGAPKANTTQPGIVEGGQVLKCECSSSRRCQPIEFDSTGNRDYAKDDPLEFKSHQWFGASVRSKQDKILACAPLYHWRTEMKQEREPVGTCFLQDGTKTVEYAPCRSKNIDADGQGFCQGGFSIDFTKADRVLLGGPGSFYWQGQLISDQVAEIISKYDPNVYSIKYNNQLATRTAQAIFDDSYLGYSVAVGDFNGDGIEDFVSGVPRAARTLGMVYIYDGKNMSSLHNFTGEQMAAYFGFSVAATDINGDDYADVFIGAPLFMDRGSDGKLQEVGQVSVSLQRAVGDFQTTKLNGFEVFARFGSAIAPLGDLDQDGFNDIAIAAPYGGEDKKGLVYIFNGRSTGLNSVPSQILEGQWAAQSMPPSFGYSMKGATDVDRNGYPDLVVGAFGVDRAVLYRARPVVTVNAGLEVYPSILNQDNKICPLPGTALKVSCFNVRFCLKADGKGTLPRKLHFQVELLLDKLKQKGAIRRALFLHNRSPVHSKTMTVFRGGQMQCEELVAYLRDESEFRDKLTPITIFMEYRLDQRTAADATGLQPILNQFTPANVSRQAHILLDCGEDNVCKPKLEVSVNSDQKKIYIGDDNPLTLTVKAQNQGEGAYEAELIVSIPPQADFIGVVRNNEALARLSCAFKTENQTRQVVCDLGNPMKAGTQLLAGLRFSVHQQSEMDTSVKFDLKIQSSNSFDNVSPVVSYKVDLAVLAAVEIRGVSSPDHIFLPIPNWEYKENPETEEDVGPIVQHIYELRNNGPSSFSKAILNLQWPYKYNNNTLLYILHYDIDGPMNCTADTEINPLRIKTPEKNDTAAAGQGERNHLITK
T1 sequence (P43406 887-1044 limits assumed): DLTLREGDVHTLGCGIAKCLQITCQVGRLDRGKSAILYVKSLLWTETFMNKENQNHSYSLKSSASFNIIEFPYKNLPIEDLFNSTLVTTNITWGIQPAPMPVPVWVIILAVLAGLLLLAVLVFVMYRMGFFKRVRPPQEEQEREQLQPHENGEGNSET
Put plainly: Fibrinogen binding assay (FACS). The class given is cell-based. The settings on record: WT EC; 20 ng/ml VEGF or 1 mM MnCl2. As for the experimental part:
as §1

In another assay the target is T2, VEGFR-2 (Mus musculus, UniProt P35918).
T2 construct: endogenous in cells; host or cells: primary mouse lung endothelial cells (WT and DiYF mice)
T2 sequence (P35918 20-1345): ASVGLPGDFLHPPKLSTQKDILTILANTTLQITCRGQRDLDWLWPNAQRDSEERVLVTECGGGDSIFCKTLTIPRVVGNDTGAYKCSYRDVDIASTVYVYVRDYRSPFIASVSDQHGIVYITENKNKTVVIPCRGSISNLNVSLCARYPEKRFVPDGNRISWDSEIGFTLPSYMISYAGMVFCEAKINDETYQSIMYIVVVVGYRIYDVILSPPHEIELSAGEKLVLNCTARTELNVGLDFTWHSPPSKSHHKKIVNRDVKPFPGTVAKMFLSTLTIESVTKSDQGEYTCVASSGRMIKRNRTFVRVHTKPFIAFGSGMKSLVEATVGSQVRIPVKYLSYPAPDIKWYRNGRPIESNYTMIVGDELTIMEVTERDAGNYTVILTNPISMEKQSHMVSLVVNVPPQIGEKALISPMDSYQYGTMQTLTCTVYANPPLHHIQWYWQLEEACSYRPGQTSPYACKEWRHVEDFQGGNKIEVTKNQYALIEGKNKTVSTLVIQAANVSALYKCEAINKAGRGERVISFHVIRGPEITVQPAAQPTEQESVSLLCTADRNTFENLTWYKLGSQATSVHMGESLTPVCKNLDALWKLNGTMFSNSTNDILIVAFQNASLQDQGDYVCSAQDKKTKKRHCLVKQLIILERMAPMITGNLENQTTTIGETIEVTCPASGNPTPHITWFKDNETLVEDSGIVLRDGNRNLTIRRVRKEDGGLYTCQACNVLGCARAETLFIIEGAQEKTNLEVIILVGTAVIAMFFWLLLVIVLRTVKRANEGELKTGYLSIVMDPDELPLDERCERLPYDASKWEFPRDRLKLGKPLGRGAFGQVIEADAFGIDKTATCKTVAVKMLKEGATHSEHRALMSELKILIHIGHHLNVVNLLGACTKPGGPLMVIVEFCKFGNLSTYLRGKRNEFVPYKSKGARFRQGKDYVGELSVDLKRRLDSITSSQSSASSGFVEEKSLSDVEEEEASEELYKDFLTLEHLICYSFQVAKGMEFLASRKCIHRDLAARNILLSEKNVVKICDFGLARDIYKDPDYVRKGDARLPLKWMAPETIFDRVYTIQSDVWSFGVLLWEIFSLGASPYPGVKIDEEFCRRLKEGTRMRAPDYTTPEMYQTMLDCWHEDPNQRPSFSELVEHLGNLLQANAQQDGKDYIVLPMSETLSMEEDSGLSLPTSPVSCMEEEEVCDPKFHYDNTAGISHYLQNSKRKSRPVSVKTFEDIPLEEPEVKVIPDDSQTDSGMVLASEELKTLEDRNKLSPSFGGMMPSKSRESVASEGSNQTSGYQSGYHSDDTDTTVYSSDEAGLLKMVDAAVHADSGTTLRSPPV
Kind of assay: VEGFR-2 phosphorylation time course in mouse lung endothelial cells. The class given is cell-based. As to conditions: 20 ng/ml VEGF. The protocol: Serum starved wild type and DiYF endothelial cells were also treated with 20 ng/ml VEGF for 0-60 mins. Cell lysates were analyzed by Western blot using anti-integrin β3 [pY^747], anti-integrin [pY^759], anti-p-VEGFR-2, anti-VEGFR-2, anti-p-ERK1/2, anti-ERK1/2, anti-p-Akt, anti-Akt, anti-p-P38MAPK and anti-MAPK antibody. The wild type and DiYF endothelial cells were lysed and equal proteins from total cell lysates were subjected SDS-PAGS and analyzed by western blot using anti-VEGFR-2 and anti-CD-31 antibody.

Assay [3] concerns HUVECs (Human Umbilical vascular endothelial cells). Kind of assay: Tube formation assay on Matrigel with inhibitory peptide. The class given is cell-based. As to conditions: 8 h. The protocol: The effect of αvβ3/VEGFR2 complex inhibiting peptides in accordance with the present invention on angiogenic function was assessed by tube formation assay on the basement membrane matrix preparation. […] Cells were washed twice with sterile PBS and seeded on Matrigel-coated plates in combination of presence/absence of VEGF and inhibitory peptide. Cells were further incubated at 37° C. for 8 h.

Assay [4] concerns αvβ3 integrin. Kind of assay: WOW-1 binding assay, mouse lung endothelial cells. The class given is cell-based. As to conditions: DiYF EC; 20 ng/ml VEGF or 1 mM MnCl2. As for the experimental part:
(§2) Wild type and DiYF mouse lung endothelial cells were serum starved for 4 h and further stimulated with 20 ng/ml VEGF-165, 20 ng/ml b-FGF or 1 mm MnC12 separately. WoW-1 Fab was added at a final concentration of […], followed by addition of Fluorescein isothiocyanate (FITC) conjugated goat anti-mouse IgG at 10 μg/ml. After 30 min cells were fixed with 3.7% formaldehyde/PBS for 15 min, washed twice with 1×PBS and FACS was performed using a FACS Calibur (Becton Dickinson, San Jose, Calif.) instrument and data were analyzed using CellQuest software program.

For assay [5], the target named is T1, αvβ3 integrin. Put plainly: WOW-1 binding assay, mouse lung endothelial cells. The class given is cell-based. The settings on record: WT EC; 20 ng/ml VEGF or 1 mM MnCl2. As for the experimental part: as §2

Turning to VEGF, the “increase of fibrinogen binding” value is on record as 3 fold with αvβ3 integrin [1] and “at least 6 fold” at αvβ3 integrin [2]. Besides, the “maximum increase in VEGFR-2 phosphorylation over control” value at VEGFR-2 (DiYF EC) worked out at 2.5 fold; on VEGFR-2 (WT EC), 6 fold. In addition, in assay [3], the “endothelial cell tube formation induced (length of tubes)” value is given as “at least 450 μm/mm^2”. The figures for the “increase in WOW-1 binding” value in the assay with αvβ3 integrin [4] and at αvβ3 integrin [5] were 3.5 fold and 9 fold, respectively.
